Data reported in patent US9926304B2, “1-(arylmethyl)quinazoline-2,4(1H,3H)-diones as PARP inhibitors and the use thereof” (Impact Therapeutics, Inc., priority 2011, dated 2018).

Experiments:
[1] = test system: Human breast cancer cell line T47D; test: Cell based caspase-3 activity assay: potentiation of MMS induced apoptosis; details: Homo sapiens, T47D, 24 h, T47D cells, 11.1 μg/ml MMS, 24 hours, intracellular caspase-3 activity; read-out: EC50 (nM), potentiation of the apoptosis inducing activity of MMS
Method in brief: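 T47D cells were exposed for 24 h to compound plus a minimally apoptotic MMS dose (medium containing 11.1 μg/ml MMS). Lysates were incubated 3 h at 37 °C with (Ac-DEVD)2-R110 caspase-3 substrate (20 μM in added buffer) and read at ex 496/em 520 nm. EC50 came from a sigmoidal fit of RFU versus log concentration.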

[2] = test system: SW620 human colorectal cancer cells; test: MTT based cell viability assay: potentiation of the growth inhibiting activity of MMS; details: Homo sapiens, SW-620, 120 h, read-out: IC50 (nM), potentiation of the growth inhibiting activity of MMS, SW620 cells, 1.7 μg/ml MMS, 5 days (120 hours), MTT

O=C(c1cccc(-n2c(=O)[nH]c(=O)c3ccccc32)c1)N1CCN(c2ncccn2)CC1 [Example 221, 1-(3-(4-(Pyrimidin-2-yl)piperazine-1-carbonyl)phenyl)quinazoline-2,4(1H,3H)-dione] was tested. Which EC50 [1] did it give?
The EC50 was over 10000 nM.

And the IC50 [2]?
Its IC50 is over 10000 nM.

What does the source list for O=C(c1ccc(F)c(Cn2c(=O)[nH]c(=O)c3ccccc32)c1)N1CCN(C(=O)c2cccs2)CC1 [Example 52, 1-(6-Fluoro-3-(4-(thiophene-2-carbonyl)piperazine-1-carbonyl)benzyl)quinazoline-2,4(1H,3H)-dione]?
EC50 [1]: 22 nM; IC50 [2]: 55 nM

With O=C(c1cc(Cn2c(=O)[nH]c(=O)c3c(F)cccc32)ccc1F)N1CCN(C(=O)C2CC2)CC1 [Example 163, 1-(3-(4-(Cyclopropylcarbonyl)piperazine-1-carbonyl)-4-fluorobenzyl)-5-fluoroquinazoline-2,4(1H,3H)-dione] as the compound, how does the EC50 [1] read?
Its EC50 is 42 nM.

What about the IC50 [2] of the same compound?
Its IC50 is 28 nM.

What does the source list for Cc1cccc2c1c(=O)[nH]c(=O)n2Cc1cccc(C(=O)N2CCN(C(=O)C3CCCC3)CC2)c1 [Example 160, 1-(3-(4-(Cyclopentylcarbonyl)piperazine-1-carbonyl)benzyl)-5-methylquinazoline-2,4(1H,3H)-dione]?
EC50 [1]: 261 nM; IC50 [2]: 394 nM

How did the EC50 [1] turn out when O=C(c1ccncc1)N1CCN(C(=O)c2cccc(Cn3c(=O)[nH]c(=O)c4ccccc43)c2)CC1 [Example 38, 1-(3-(4-(Pyridine-4-carbonyl)piperazine-1-carbonyl)benzyl)quinazoline-2,4(1H,3H)-dione] was run?
Its EC50 is 267 nM.

What about the IC50 [2] of the same compound?
The IC50 was over 10000 nM.

For O=C(c1ccc(F)c(Cn2c(=O)[nH]c(=O)c3ccccc32)c1)N1CCN(C(=O)c2ccco2)CC1 [Example 54, 1-(6-Fluoro-3-(4-(furan-2-carbonyl)piperazine-1-carbonyl)benzyl)quinazoline-2,4(1H,3H)-dione], which EC50 [1] is on record?
Its EC50 is 124 nM.

What about the IC50 [2] of the same compound?
The IC50 was 217 nM.

Which results are given for O=C(c1cccc(Cn2c(=O)[nH]c(=O)c3ccccc32)c1)N1CCN(C2CCCCC2)CC1 [Example 5, 1-(3-(4-Cyclohexylpiperazine-1-carbonyl)benzyl)quinazoline-2,4(1H,3H)-dione]?
EC50 [1]: 450 nM; IC50 [2]: 5360 nM

How did the EC50 [1] turn out when O=C(c1cccc(Cn2c(=O)[nH]c(=O)c3ccc(F)cc32)c1)N1CCN(c2ncccn2)CC1 [Example 78, 7-Fluoro-1-(3-(4-(pyrimidin-2-yl)piperazine-1-carbonyl)benzyl)quinazoline-2,4(1H,3H)-dione] was run?
Its EC50 is 112 nM.

What about the IC50 [2] of the same compound?
The IC50 was 269 nM.

O=C(c1ccc(Br)cc1)N1CCN(C(=O)c2ccc(Cn3c(=O)[nH]c(=O)c4ccccc43)cc2)CC1 [Example 98, 1-(4-(4-(4-Bromobenzoyl)piperazine-1-carbonyl)benzyl)quinazoline-2,4(1H,3H)-dione] was tested. Which EC50 [1] did it give?
Its EC50 is over 10000 nM.

What about the IC50 [2] of the same compound?
The IC50 was over 10000 nM.

How did the EC50 [1] turn out when O=C(c1ccc(F)c(Cn2c(=O)[nH]c(=O)c3cc(F)ccc32)c1)N1CCN(C(=O)C2CCC2)CC1 [Example 183, 1-(3-(4-(Cyclobutylcarbonyl)piperazine-1-carbonyl)-6-fluorobenzyl)-6-fluoroquinazoline-2,4(1H,3H)-dione] was run?
Its EC50 is 6.1 nM.

And the IC50 [2]?
Its IC50 is 13 nM.

What does the source list for O=C(c1ccc(F)c(Cn2c(=O)[nH]c(=O)c3c(Cl)cccc32)c1)N1CCN(C(=O)C2CCC2)CC1 [Example 170, 5-Chloro-1-(3-(4-(cyclobutylcarbonyl)piperazine-1-carbonyl)-6-fluorobenzyl)quinazoline-2,4(1H,3H)-dione]?
EC50 [1]: 43 nM; IC50 [2]: 120 nM

With O=C(c1ccc(Cn2c(=O)[nH]c(=O)c3ccccc32)o1)N1CCN(c2nsc3ccccc23)CC1 [Example 68, 1-((2-(4-(Benzo[d]isothiazol-3-yl)piperazine-1-carbonyl)furan-5-yl)methyl)quinazoline-2,4(1H,3H)-dione] as the compound, how does the EC50 [1] read?
The EC50 was 635 nM.

And the IC50 [2]?
The IC50 was 673 nM.

Which results are given for O=C(c1ccc(F)c(Cn2c(=O)[nH]c(=O)c3c(Cl)cccc32)c1)N1CCN(c2ncccn2)CC1 [Example 110, 5-Chloro-1-(6-fluoro-3-(4-(pyrimidin-2-yl)piperazine-1-carbonyl)benzyl)quinazoline-2,4(1H,3H)-dione]?
EC50 [1]: 32 nM; IC50 [2]: 72 nM

With Cc1ccc2c(=O)[nH]c(=O)n(Cc3cccc(C(=O)N4CCN(c5ncccn5)CC4)c3)c2c1 [Example 80, 7-Methyl-1-(3-(4-(pyrimidin-2-yl)piperazine-1-carbonyl)benzyl)quinazoline-2,4(1H,3H)-dione] as the compound, how does the EC50 [1] read?
Its EC50 is 1190 nM.

What about the IC50 [2] of the same compound?
Its IC50 is over 10000 nM.

Which EC50 [1] does the source give for O=C(c1cc(Cn2c(=O)[nH]c(=O)c3cc(F)ccc32)ccc1F)N1CCN(C(=O)C2CC2)CC1 [Example 178, 1-(3-(4-(Cyclopropylcarbonyl)piperazine-1-carbonyl)-4-fluorobenzyl)-6-fluoroquinazoline-2,4(1H,3H)-dione] here?
Its EC50 is 11 nM.

What about the IC50 [2] of the same compound?
Its IC50 is 7.9 nM.

How did the EC50 [1] turn out when O=C(c1cccc(Cn2c(=O)[nH]c(=O)c3ccccc32)c1)N1CCN(C2CCCC2)CC1 [Example 177, 1-(3-(4-Cyclopentylpiperazine-1-carbonyl)benzyl)quinazoline-2,4(1H,3H)-dione] was run?
Its EC50 is 743 nM.

And the IC50 [2]?
Its IC50 is over 10000 nM.

What does the source list for O=C(c1ccccc1)N1CCN(C(=O)c2cc(Cn3c(=O)[nH]c(=O)c4cc(Cl)ccc43)ccc2F)CC1 [Example 164, 6-Chloro-1-(3-(4-benzoylpiperazine-1-carbonyl)-4-fluorobenzyl)quinazoline-2,4(1H,3H)-dione]?
EC50 [1]: 2.1 nM; IC50 [2]: 6.2 nM

CC(=O)N1CCN(C(=O)c2cccc(Cn3c(=O)[nH]c(=O)c4ccccc43)c2)CC1 [Example 17, 1-(3-(4-Acetylpiperazine-1-carbonyl)benzyl)quinazoline-2,4(1H,3H)-dione] was tested. Which EC50 [1] did it give?
Its EC50 is 5020 nM.

What about the IC50 [2] of the same compound?
Its IC50 is over 10000 nM.

How did the EC50 [1] turn out when O=C(c1ccc(Cn2c(=O)[nH]c(=O)c3ccccc32)cc1)N1CCN(c2ncccn2)CC1 [Example 97, 1-(4-(4-(Pyrimidin-2-yl)piperazine-1-carbonyl)benzyl)quinazoline-2,4(1H,3H)-dione] was run?
The EC50 was over 10000 nM.

What about the IC50 [2] of the same compound?
Its IC50 is over 10000 nM.

How did the EC50 [1] turn out when O=C(c1cccc(Cn2c(=O)[nH]c(=O)c3cc(Cl)ccc32)c1)N1CCN(c2ccccn2)CC1 [Example 114, 6-Chloro-1-(3-(4-(pyridin-2-yl)piperazine-1-carbonyl)benzyl)quinazoline-2,4(1H,3H)-dione] was run?
The EC50 was 19 nM.

What about the IC50 [2] of the same compound?
The IC50 was 51 nM.

For COc1ccc(C(=O)N2CCN(C(=O)c3ccc(Cn4c(=O)[nH]c(=O)c5ccccc54)cc3)CC2)cc1 [Example 95, 1-(4-(4-(4-Methoxybenzoyl)piperazine-1-carbonyl)benzyl)quinazoline-2,4(1H,3H)-dione], which EC50 [1] is on record?
The EC50 was over 10000 nM.

And the IC50 [2]?
Its IC50 is over 10000 nM.

Which results are given for O=C(c1cc(Cn2c(=O)[nH]c(=O)c3c(F)cccc32)ccc1F)N1CCN(c2ccccc2)CC1 [Example 213, 5-Fluoro-1-(4-fluoro-3-(4-phenylpiperazine-1-carbonyl)benzyl)quinazoline-2,4(1H,3H)-dione]?
EC50 [1]: 590 nM; IC50 [2]: 58 nM

O=C(c1cccc(Cn2c(=O)[nH]c(=O)c3cccc(Cl)c32)c1)N1CCN(c2ncccn2)CC1 [Example 224, 8-Chloro-1-(3-(4-(pyrimidin-2-yl)piperazine-1-carbonyl)benzyl)quinazoline-2,4(1H,3H)-dione] was tested. Which EC50 [1] did it give?
Its EC50 is 274 nM.

And the IC50 [2]?
The IC50 was 1110 nM.

Which EC50 [1] does the source give for O=C(c1cccc(Cn2c(=O)[nH]c(=O)c3ccc(Cl)cc32)c1)N1CCN(C(=O)C2CCCC2)CC1 [Example 162, 7-Chloro-1-(3-(4-(cyclopentylcarbonyl)piperazine-1-carbonyl)benzyl)quinazoline-2,4(1H,3H)-dione] here?
The EC50 was 495 nM.

And the IC50 [2]?
Its IC50 is 1190 nM.
